Bridge positions count the residues as written; N and C are the ends. Square brackets hold non-standard residues; d marks the D form. Peptide text beside a SMILES is read from it. NMeF = CN[C@@H](Cc1ccccc1)C(=O)O; NMeS = CN[C@@H](CO)C(=O)O; Sar = CNCC(=O)O
Legend:
[1] = molecular target: T1, E6AP-HECT (Homo sapiens, UniProt Q05086); assay: Determination of binding constant using SPR (BIACORE T100, streptavidin sensor chip)
T1 construct: The C terminal domain of E6AP, consisting of about 350 amino acid residues, is called the HECT
T1 sequence (Q05086 495-852 isoform Q05086-2 limits assumed): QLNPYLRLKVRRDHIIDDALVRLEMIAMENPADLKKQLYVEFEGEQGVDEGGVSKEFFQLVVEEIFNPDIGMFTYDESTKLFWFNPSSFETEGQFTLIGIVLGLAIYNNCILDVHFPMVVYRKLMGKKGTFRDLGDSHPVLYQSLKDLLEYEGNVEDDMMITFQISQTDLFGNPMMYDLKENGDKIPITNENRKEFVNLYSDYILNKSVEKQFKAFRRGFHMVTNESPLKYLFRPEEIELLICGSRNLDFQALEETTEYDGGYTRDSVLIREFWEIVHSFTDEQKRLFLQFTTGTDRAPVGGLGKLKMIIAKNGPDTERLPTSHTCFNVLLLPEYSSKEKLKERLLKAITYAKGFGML
Method: The binding constant of MCP11 to E6AP-HECT was analyzed by a surface plasmon resonance using BIACORE T100.
A streptavidin sensor chip (SA chip certified) was used as a sensor chip, an Avi-His-GB1-E6AP-HECT was used as a ligand, and MCP11 was used as an analyte. After E6AP-HECT was fixed to a sensor chip, the KD of MCP11 was 0.5 nM.

[2] = molecular target: T2, E6AP-HECT (Homo sapiens, UniProt Q05086); assay: KD / nM
T2 construct: The C terminal domain of E6AP, consisting of about 350 amino acid residues, is called the HECT
Excerpt: Table printed on a drawing sheet, Figure 5-4
Head of the field: KD / nM
Biotinylated E6AP-HECT was fixed to the streptavidin chip to analyze affinity using the peptides. (Example 7)
First copying reader's note: Brackets drawn under MCP11 and CP11 link the N-terminal CH2CO to the second Cys (cyclic peptides); the raised Me marks and underlining denote N-methyl residues.
Where the first naming reader finds the target: description_of_the_figure: Biotinylated E6AP-HECT was fixed to the streptavidin chip to analyze affinity using the peptides.
T2 sequence (Q05086 whole entry, looked up, the tested form may be a part): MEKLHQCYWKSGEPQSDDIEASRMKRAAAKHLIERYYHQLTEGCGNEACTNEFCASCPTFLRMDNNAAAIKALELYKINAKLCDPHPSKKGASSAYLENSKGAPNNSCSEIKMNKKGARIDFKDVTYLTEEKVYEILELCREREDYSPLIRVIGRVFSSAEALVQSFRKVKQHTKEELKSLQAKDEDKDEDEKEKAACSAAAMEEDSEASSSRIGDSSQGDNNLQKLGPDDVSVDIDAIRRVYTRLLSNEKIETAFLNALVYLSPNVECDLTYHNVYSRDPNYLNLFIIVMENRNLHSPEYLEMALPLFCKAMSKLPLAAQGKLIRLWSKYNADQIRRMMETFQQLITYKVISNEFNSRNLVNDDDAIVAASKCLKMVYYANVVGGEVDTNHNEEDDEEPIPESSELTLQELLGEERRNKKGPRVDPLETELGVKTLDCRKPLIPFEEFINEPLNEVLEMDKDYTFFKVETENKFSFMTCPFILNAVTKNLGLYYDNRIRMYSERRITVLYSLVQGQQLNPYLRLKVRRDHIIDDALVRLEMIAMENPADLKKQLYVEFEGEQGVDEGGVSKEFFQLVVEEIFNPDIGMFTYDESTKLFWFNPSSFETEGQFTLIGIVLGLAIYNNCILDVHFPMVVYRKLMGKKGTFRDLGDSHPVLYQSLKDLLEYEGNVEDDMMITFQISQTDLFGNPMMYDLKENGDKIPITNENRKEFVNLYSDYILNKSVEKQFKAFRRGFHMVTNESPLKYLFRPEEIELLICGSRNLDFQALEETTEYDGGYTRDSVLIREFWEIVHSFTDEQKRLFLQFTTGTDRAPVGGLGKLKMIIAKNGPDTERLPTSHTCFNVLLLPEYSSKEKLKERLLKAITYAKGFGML

Molecule `CC(C)[C@@H]1NC(=O)[C@H](CC(=O)O)NC(=O)[C@H](CS)NC(=O)[C@@H](Cc2c[nH]c3ccccc23)NC(=O)CSC[C@@H](C(=O)NCC(N)=O)NC(=O)[C@@H]2CCCN2C(=O)[C@H](Cc2ccccc2)N(C)C(=O)[C@H](Cc2ccc(O)cc2)NC(=O)CN(C)C(=O)[C@H](Cc2ccccc2)N(C)C(=O)[C@H](CCCNC(=N)N)NC(=O)CNC(=O)[C@H](CO)N(C)C1=O` [MCP11, Cyclo(-Ac-^DWCDV^MeSGR^MeF^MeGY^MeFPC)G-OH] ({CH2CO}-[dW]CDV[NMeS]GR[NMeF][Sar]Y[NMeF]PCG-NH2; thioether N-13) has a Kd ([1]; surface plasmon resonance, Avi-His-GB1-E6AP-HECT fixed as ligand, peptide as analyte) of 0.5 nM.

In the case of `CC(=O)N[C@H](Cc1c[nH]c2ccccc12)C(=O)N[C@@H](CS)C(=O)N[C@@H](CC(=O)O)C(=O)N[C@H](C(=O)N(C)[C@@H](CO)C(=O)NCC(=O)N[C@@H](CCCNC(=N)N)C(=O)N(C)[C@@H](Cc1ccccc1)C(=O)N(C)CC(=O)N[C@@H](Cc1ccc(O)cc1)C(=O)N(C)[C@@H](Cc1ccccc1)C(=O)N1CCC[C@H]1C(=O)N[C@@H](CS)C(=O)NCC(N)=O)C(C)C` [MLP11:, CH3CO-wCDV^MeSGR^MeF^MeGY^MeFPCG-NH2] (Ac-[dW]CDV[NMeS]GR[NMeF][Sar]Y[NMeF]PCG-NH2), the Kd [2] is reported as 100 to 1000 nM.

`CC(=O)N[C@H](Cc1c[nH]c2ccccc12)C(=O)N[C@@H](CS)C(=O)N[C@@H](CC(=O)O)C(=O)N[C@H](C(=O)N(C)[C@@H](CO)C(=O)NCC(=O)N[C@@H](CCCNC(=N)N)C(=O)N(C)[C@@H](Cc1ccccc1)C(=O)N(C)CC(=O)N[C@@H](Cc1ccc(O)cc1)C(=O)N(C)[C@@H](Cc1ccccc1)C(=O)N1CCC[C@H]1C(=O)N[C@@H](CS)C(=O)NCC(N)=O)C(C)C` [MLP11] (Ac-[dW]CDV[NMeS]GR[NMeF][Sar]Y[NMeF]PCG-NH2) was tested, and the “difference in the binding ability” value ([1]; KD of MLP11 relative to MCP11) was ≥ 200 times.

From patent publication US9410148B2, “Method for constructing libraries of non-standard peptide compounds comprising N-methyl amino acids and other special (non-standard) amino acids and method for searching and identifying active species” (THE UNIVERSITY OF TOKYO, priority 2010, dated 2016)
